Assay results taken from patent US8697731B2, “Derivatives of 2-pyridin-2-yl-pyrazol-3(2H)-one, preparation and therapeutic use thereof” (Sanofi, priority 2008, dated 2014).

How the values were obtained:
HIF1-alpha = experiment: Measurement of the stabilization of HIF1-alpha in HEKEA cells (beta-galactosidase complementation); assay type: cell-based, human; settings: HEKEA_HIF1-alphaPLBL cells, 6 hours under normoxia, luminescence; molar concentration that produces 50% of the maximum response of this same compound
Source text: Furthermore, a subject of the invention is also a uniform test for the direct measurement by beta-galactosidase complementation of the amount of HIF1-alpha protein in the nucleus of cells, preferably HEK cells, after treating the said cells with one or more test compounds, which consists in: • (a) inoculating, preferably in 384-well plates, the said cells in a suitable culture medium, preferably 1% foetal calf serum (abbreviated as FCS); • (b) adding the test compound(s) at a suitable concentration in a suitable solvent to the cells previously inoculated in the said culture medium; preferably the test compounds are diluted in 0.1% FCS; • (c) incubating the said cells thus prepared in an indicator at about 37° C., advantageously for about 6 hours; • (d) lysing the cells with a lysis buffer containing a chemiluminescent substrate for beta-galactosidase; • (e) incubating in the absence of light, before reading and measuring the luminescence, which is a function of the beta-galactosidase activity.
The test is a cell test based on the principle of enzyme complementation, the enzyme used herein being beta-galactosidase. HEKEA cells are HEK cells stably expressing, and restricted in their nucleus, mutant beta-galactosidase (omega fragment, also known as EA) (line sold by DiscoverX). This construct makes it possible to obtain beta-galactosidase activity only when the protein comprising the Prolabel complementation fragment has migrated into the nucleus.
The protein of interest comprising the Prolabel fragment is in this case an HIF1-alpha or HIF1-alpha mutated at the two prolines 402 and 564 replaced with alanines, is C-terminal fused via molecular biology (DiscoverX vector sold by Clontech) with the small complementation peptide fragment (Prolabel or ED, about 4 kDa). The vector coding for the chimeric protein HIF1-alpha_Prolabel is then transfected into HEKEA cells to obtain stable clones (HEKEA_HIF1-alphaPLBL).
The amount of C-terminal Prolabel-“labelled” HIF1-alpha protein obtained after treating the cells to hypoxia or compounds that are potentially HIF activators is measured by adding to the cells a lysis buffer containing a chemiluminescent substrate for beta-galactosidase.
The measurement of the beta-galactosidase activity will be proportional to the amount of Prolabel and thus of HIF1-alpha that has migrated into the nucleus of the cells.
1.3.1 Experiment Plan • 1) Inoculation of the cells on D0 • 2) Adherence for 24 hours under normoxia • 3) Preparation and addition of the products (Biomek 2000 and FX) on D+1 • 4) Incubation under normoxia for 6 hours • 5) Reading of the plates (by luminescence)
The cells are inoculated with Multidrop in white, opaque-bottomed 384-well plates (Greiner ref 3704), in 30 μl of culture medium (1% FCS) a 10000 cells/well (cell plate).
The test products are prepared at 3×10^−2 M in 100% DMSO and then diluted to 3×10^−4 M in medium containing 0.1% FCS (10 μl in 990 μl of MEM). They are then deposited by hand into column 12 of a round-bottomed 96-well plate (200 μl of each compound) known as the dilution plate (dl). The complete DL plate of 3×10^−4 M to 10^−9 M is then prepared with Biomek 2000 (programme: range of 10 points in series). For the references and controls, 100 μl of DMEM containing 0.1% FCS are added to column 1, 100 μl of Deferoxamine 10^−3M to column 2, wells A B C D and 100 μl of Deferoxamine 5×10^−3 M to column 2, wells E F G H.
3.3 μL are taken from the DL plate by pipetting with a Biomek FX 96 and placed in horizontal duplicate (columns 1 to 24) in each 384-well cell plate (HEKEA_HIF1-alphaPLBL cell plate).
The cells are then placed for 6 hours in an incubator at 37° C. (ambient O2, 6% CO2).
The kit used is the Prolabel chemiluminescent kit (Ref 93-0001 DiscoverX). […]

EPO = experiment: Measurement of the secretion of EPO by Hep3B hepatocytes (ELISA); assay type: cell-based; settings: Homo sapiens, supernatant of Hep3B cells, 18 hours under normoxia, concentration that produces 50% of the maximum response of this same compound
Experimental: (§1) The test is an ELISA test for measuring VEGF and EPO in the supernatant of Hep3B cells treated under hypoxia or with deferoxamine as controls or with the potential HIF activators. The test was adapted to a 96-well plate, allowing greater compound screening capacity.
(§2) 2.3.1 Experiment Plan • 1) Inoculation of the cells on D0 • 2) Adherence for 6 hours under normoxia • 3) Preparation and addition of the products (Biomek 2000 and FX) • 4) Incubation under normoxia for 18 hours • 5) EPO and VEGF assay in the supernatant on D+1
(§3) The cells are subcultured into 100 μl of culture medium (10% FCS) in black, opaque-bottomed 96-well plates (reference Costar 3916) at 30000 cells/well, with Multidrop.
(§4) The test products are prepared at 10^−2M in 100% DMSO and then diluted to […] in medium containing 0.1% FCS (6 μl in 194 μl of MEM). 200 μl of each compound are deposited in column 12 of a 96-well plate. Dilution ranges from 3×10^−4M to 3×10^−8M are prepared with Biomek 2000 (programme: range of 9 points in series). 100 μl of MEM 0.1% FCS and Deferoxamine 5×10^−3M are added as controls to column 3 and, respectively, to wells A,B,C,D & wells E,F,G,H
(§5) The medium of the cells inoculated the day before into 96-well plates is changed for 90 μl of medium containing 0.1% FCS and 10 μl are distributed with FX 96 from the 96-well DL plates to the cell plates.
(§6) The cell plates thus treated are placed for 18 hours in an incubator at 37° C. (ambient O2, 6% CO2).
(§7) The supernatants (80 μl) of the Hep3B cells in the 96-well plates treated with the potential HIF activators are recovered with a multichannel pipette for simultaneous assay of the VEGF and the EPO by ELISA according to the supplier's instructions (Kit EPO Mesoscale (ref K15122B-2)).
(§8) The activating activity of a compound with respect to HIF is given by the concentration that produces 50% of the maximum response of this same compound in Table IV.

VEGF = experiment: Measurement of the secretion of VEGF by Hep3B hepatocytes (ELISA); assay type: cell-based; settings: Homo sapiens, supernatant of Hep3B cells, 18 hours under normoxia, concentration that produces 50% of the maximum response of this same compound
Experimental: as §1, §2, §3, §4, §5, §6, §7, §8

SMILES | EC50 (HIF1-alpha) [µM] | EC50 (EPO) [µM] | EC50 (VEGF) [µM] | melting point [°C]
O=c1c2c([nH]n1-c1ccccn1)CSC2 [Compound 1, 2-pyridin-2-yl-1,2,4,6-tetrahydro-3H-thieno[3,4-c]pyrazol-3-one] | 8.8 | 2.9 | 3 | 152
CCN(c1ccccc1)S(=O)(=O)c1ccc(-n2[nH]c3c(c2=O)CSC3)nc1 [Compound 9, N-ethyl-6-(3-oxo-4,6-dihydro-1H-thieno[3,4-c]pyrazol-2(3H)-yl)-N-phenylpyridine-3-sulfonamide] | 1.4 | 0.7 | 0.66 | 208
CCN(c1ccccc1)S(=O)(=O)c1ccc(-n2[nH]c3c(c2=O)CSCC3)nc1 [Compound 13, N-ethyl-6-(3-oxo-1,4,6,7-tetrahydrothiopyrano[4,3-c]pyrazol-2(3H)-yl)-N-phenylpyridine-3-sulfonamide] | 5.2 | 0.9 | 1 | 176
O=c1c2c([nH]n1-c1ccc(S(=O)(=O)N3CCCC3)cn1)CSC2 [Compound 15, 2-[5-(pyrrolidin-1-ylsulfonyl)pyridin-2-yl]-1,2,4,6-tetrahydro-3H-thieno[3,4-c]pyrazol-3-one] | 16 | 2.8 | 3 | 152
O=c1c2c([nH]n1-c1ccc(S(=O)(=O)NC3CC3)cn1)CSC2 [Compound 16, N-cyclopropyl-6-(3-oxo-4,6-dihydro-1H-thieno[3,4-c]pyrazol-2(3H)-yl)pyridine-3-sulfonamide] | 8.6 | 3.5 | 3 | 262
CC(C)NS(=O)(=O)c1ccc(-n2[nH]c3c(c2=O)CSC3)nc1 [Compound 17, 6-(3-oxo-4,6-dihydro-1H-thieno[3,4-c]pyrazol-2(3H)-yl)-N-(propan-2-yl)pyridine-3-sulfonamide] | 10 | 2.9 | 2.9 | 258
CC(C)(C)NS(=O)(=O)c1ccc(-n2[nH]c3c(c2=O)CSC3)nc1 [Compound 18, N-tert-butyl-6-(3-oxo-4,6-dihydro-1H-thieno[3,4-c]pyrazol-2(3H)-yl)pyridine-3-sulfonamide] | 4.4 | 0.5 | 0.4 | 257
O=c1c2c([nH]n1-c1ccc(S(=O)(=O)NCc3ccco3)cn1)CSC2 [Compound 19, N-(furan-2-ylmethyl)-6-(3-oxo-4,6-dihydro-1H-thieno[3,4-c]pyrazol-2(3H)-yl)pyridine-3-sulfonamide] | 5.5 | 2.4 | 2.4 | 238
O=c1c2c([nH]n1-c1ccc(S(=O)(=O)NC3CCCC3)cn1)CSC2 [Compound 20, N-cyclopentyl-6-(3-oxo-4,6-dihydro-1H-thieno[3,4-c]pyrazol-2(3H)-yl)pyridine-3-sulfonamide] | 3.4 | 1 | 0.9 | > 260
CN(c1ccccn1)S(=O)(=O)c1ccc(-n2[nH]c3c(c2=O)CSC3)nc1 [Compound 21, N-methyl-6-(3-oxo-4,6-dihydro-1H-thieno[3,4-c]pyrazol-2(3H)-yl)-N-pyridin-2-ylpyridine-3-sulfonamide] | 8.7 | 1.4 | 2.4 | 226
CCN(c1ccccc1)S(=O)(=O)c1ccc(-n2[nH]c3c(c2=O)SCCC3)nc1 [Compound 24, N-ethyl-6-(3-oxo-3,5,6,7-tetrahydrothiopyrano[3,2-c]pyrazol-2(1H)-yl)-N-phenylpyridine-3-sulfonamide] | 3 | 0.5 | 0.5 | 198
CCN(c1ccccc1)S(=O)(=O)c1ccc(-n2[nH]c3c(c2=O)COCC3)nc1 [Compound 25, N-ethyl-6-(3-oxo-1,4,6,7-tetrahydropyrano[4,3-c]pyrazol-2(3H)-yl)-N-phenylpyridine-3-sulfonamide] | 3.3 | 2.4 | 2.5 | 164
CC(C)(C)OC(=O)c1ccc(-n2[nH]c3c(c2=O)CSC3)nc1 [Compound 30, tert-butyl 6-(3-oxo-4,6-dihydro-1H-thieno[3,4-c]pyrazol-2(3H)-yl)pyridine-3-carboxylate] | 0.65 | 1.5 | 1.8 | 
CCN(C(C)(C)C)S(=O)(=O)c1ccc(-n2nc3c(c2O)CSC3)nc1 [Compound 32, sodium 2-{5-[tert-butyl(ethyl)sulfamoyl]pyridin-2-yl}-2,6-dihydro-4H-thieno[3,4-c]pyrazol-3-olate] | 1.3 | 2.6 | 3.2 | 
CCN(c1ccccc1)S(=O)(=O)c1ccc(-n2nc3c(c2O)N(Cc2ccccc2)C(=O)CC3)nc1 [Compound 35, sodium 4-benzyl-2-{5-[ethyl(phenyl)sulfamoyl]pyridin-2-yl}-5-oxo-4,5,6,7-tetrahydro-2H-pyrazolo[4,3-b]pyridin-3-olate] | 2.5 | 1.7 | 1.1 | 
CN(C(C)(C)C)S(=O)(=O)c1ccc(-n2nc3c(c2O)CSC3)nc1 [Compound 36, sodium 2-{5-[tert-butyl(methyl)sulfamoyl]pyridin-2-yl}-2,6-dihydro-4H-thieno[3,4-c]pyrazol-3-olate] | 1.2 | 1.6 | 2 | 
COc1ccnc(-n2[nH]c3c(c2=O)CSC3)c1 [Compound 59, 2-(4-methoxypyridin-2-yl)-1,2,4,6-tetrahydro-3H-thieno[3,4-c]pyrazol-3-one] |  | 2.6 | 3.1 | 254
CCc1ccnc(-n2[nH]c3c(c2=O)CSC3)c1 [Compound 61, sodium 2-(4-ethylpyridin-2-yl)-2,6-dihydro-4H-thieno[3,4-c]pyrazol-3-olate] | 1.9 | 2.2 | 2.8 | 
